Laboratory results reported in publication PMC4457651 (Biochimica et biophysica acta, 2015).

Tests used:
[1] = target: T1, yeast cytochrome c peroxidase (yCcP) (Saccharomyces cerevisiae, UniProt P00431); assay: Equilibrium binding to heme of yCcP by spectrophotometric titration; parameters: species or system S. cervisiae; settings: for KAapp: calculated from best-fit line
T1 sequence (P00431 68-361): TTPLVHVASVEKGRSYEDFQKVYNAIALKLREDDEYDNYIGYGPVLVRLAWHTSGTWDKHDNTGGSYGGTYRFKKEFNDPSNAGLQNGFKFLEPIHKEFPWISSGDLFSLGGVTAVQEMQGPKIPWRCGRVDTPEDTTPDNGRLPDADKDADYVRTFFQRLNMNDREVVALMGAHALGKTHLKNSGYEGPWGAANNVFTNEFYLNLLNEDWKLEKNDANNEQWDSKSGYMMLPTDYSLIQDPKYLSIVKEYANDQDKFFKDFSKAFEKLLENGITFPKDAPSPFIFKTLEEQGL

[2] = target: recombinant cytochrome c peroxidase (rCcP) (Saccharomyces cerevisiae, UniProt P00431); assay: Equilibrium binding to heme of rCcP by spectrophotometric titration; parameters: species or system baker's yeast
CcP(H52L) = CcP(H52L) (Saccharomyces cerevisiae, UniProt P00431, H119L); assay: Equilibrium binding to CcP; parameters: species or system baker's yeast
Chain of CcP(H52L) (P00431 68-361 H119L): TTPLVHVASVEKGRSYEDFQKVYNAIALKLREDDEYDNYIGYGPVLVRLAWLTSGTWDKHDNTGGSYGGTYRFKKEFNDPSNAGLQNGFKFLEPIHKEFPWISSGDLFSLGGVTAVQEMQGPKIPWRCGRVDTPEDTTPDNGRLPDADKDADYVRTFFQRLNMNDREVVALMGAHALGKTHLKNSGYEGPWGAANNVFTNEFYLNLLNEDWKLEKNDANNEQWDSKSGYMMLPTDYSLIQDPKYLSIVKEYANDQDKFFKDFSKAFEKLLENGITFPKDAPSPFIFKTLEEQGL

[3] = target: rCcP (heme and Trp-191 cavity) (Saccharomyces cerevisiae, UniProt P00431); assay: Kinetics of ligand binding to rCcP; parameters: species or system baker's yeast; settings: for Time for initial binding phase to be complete: first kinetic phase, manual mixing
horse metMb = settings: read-out: KDapp, metMb; pH 7; cited from earlier work
sperm whale metMb = settings: cited from earlier work
CcP(W191G) = settings: read-out: Apparent KD, CcP(W191G)/imidazole complex; cited from earlier work
horse cytochrome c = settings: read-out: KD, horse cytochrome c imidazole complex; cited from earlier work
[4] = target: Chironomus plumosus metHb; settings: read-out: KD, Chironomus plumosus metHb imidazole complex; cited from earlier work
[5] = target: Rhodobacter sphaeroides cytochrome c1; settings: read-out: KD, Rhodobacter sphaeroides cytochrome c1 imidazole complex; cited from earlier work
[6] = target: R. capsulatus cytochrome c2(M96N); settings: read-out: KD, R. capsulatus cytochrome c2(M96N) imidazole complex; cited from earlier work
nitric oxide synthase = settings: read-out: KD, nitric oxide synthase imidazole complex; cited from earlier work
[7] = tested on: horseradish peroxidase (HRP); settings: pH 9.3; cited from earlier work
cytochrome P450CAM = settings: read-out: KD, cytochrome P450CAM imidazole complex; cited from earlier work
[8] = ionization of free imidazole; cited from earlier work
[9] = neutral pH; cited from earlier work
[10] = target: yCcP (heme and Trp-191 cavity) (Saccharomyces cerevisiae, UniProt P00431); assay: Kinetics of ligand binding to yCcP; parameters: species or system S. cervisiae; settings: for KA2: Trp-191 cavity of yCcP; for KA2 / k4: fit to Eq. 5; for k4: Trp-191 cavity of yCcP/MIM complex
[11] = pH 7.0, biphasic imidazole titration
[12] = 8.76 μM rCcP, 3.15 M imidazole, pH 7.0

c1c[nH]cn1 [Imidazole, imidazole]
Fraction of yCcP bound to ligand at highest ligand concentration ([1]; imidazole up to 4.90 M, pH 7.0): about 60% | Binding to CcP weaker than binding to metmyoglobin ([1]; pH 7): about 120 times | KDapp of rCcP complex larger than for yCcP complex ([2]; pH 7.0): about 40% | High-affinity phase of CcP(H52L): greater affinity than yCcP (CcP(H52L)): 25 fold | Low-affinity phase of CcP(H52L) weaker than binding by yCcP (CcP(H52L)): about 3 times | Fraction of high-affinity phase, CcP(H52L) (CcP(H52L); [11]): < 46% | Fraction of low-affinity phase, CcP(H52L) (CcP(H52L); [11]): > 54% | kfobs, observed rate constant of fast phase [3, 12]: (2.13 ± 0.08) × 10^−2 s^−1 | ksobs, observed rate constant of slow phase [3, 12]: (2.91 ± 0.01) × 10^−4 s^−1 | Kd (horse metMb): 28 mM | Rate constant of binding to sperm whale metMb (sperm whale metMb): 360 M⁻¹ s⁻¹ | Kd (sperm whale metMb; read-out: KD, sperm whale metmyoglobin imidazole complex): 26 mM | Kd (CcP(W191G)): 0.7 mM | Kd (horse cytochrome c): 34 mM | Kd [4]: 0.029 mM | Kd [5]: 0.033 mM | Kd [6]: 0.0018 mM | Kd (nitric oxide synthase): 0.063 mM | Formation of HRP/imidazole complex [7]: Only partial formation | Kd (cytochrome P450CAM): 0.4 mM | pKA of free imidazole [8]: 14.4

c1c[nH]cn1 [imidazolium ion]
Rate constant of binding to sperm whale metMb (sperm whale metMb): 127 M⁻¹ s⁻¹

O=[N+]([O-])c1c[nH]cn1 [4-Nitroimidazole, 4-nitroimidazole]
Fraction of yCcP bound to ligand at highest ligand concentration ([1]; ~5 mM 4NI, pH 7.0, estimate): about 2% | Kd [2]: ~100 mM | Fraction of rCcP bound to ligand at highest ligand concentration ([2]; ~5 mM 4NI, pH 7.0, estimate): ~ 5% | Kd (CcP(H52L)): ~30 mM | Fraction of CcP(H52L)/4NI complex formed (CcP(H52L); 4.80 mM 4NI, pH 7.0, estimate): about 14% | Affinity of CcP(H52L) higher than CcP (CcP(H52L); estimated): 7 fold | Kd (horse metMb): 2.5 mM | Concentration of saturated solution in aqueous buffer [9]: less than 6 mM

Cn1ccnc1 [1-Methylimidazole, 1-methylimidazole]
Apparent pKa of ionizable group affecting MIM binding affinity ([1]; Saccharomyces cerevisiae (yeast), pH 4): 5.2 ± 0.3 | Increase in binding affinity on decreasing pH from 7.5 to 4.0 ([1]; yCcP): 4 fold | KAapp ([1]; yCcP, pH 4.1): 4.72 M⁻¹ | KAapp ([1]; yCcP, pH 4.5): 4.37 M⁻¹ | KAapp ([1]; yCcP, pH 5.0): 3.53 M⁻¹ | KAapp ([1]; yCcP, pH 5.5): 2.48 M⁻¹ | KAapp ([1]; yCcP, pH 6.0): 1.74 M⁻¹ | KAapp ([1]; yCcP, pH 6.5): 1.40 M⁻¹ | KAapp ([1]; yCcP, pH 7.0): 1.30 M⁻¹ | KAapp ([1]; yCcP, pH 7.5): 1.24 M⁻¹ | Kd [10]: 5 ± 2 mM | KA2 ([10]; pH 4.1): (2.94 ± 0.28) × 10^2 M^−1 | KA2 ([10]; pH 4.5): (9.19 ± 0.52) × 10^1 M^−1 | KA2 ([10]; pH 5.0): (1.74 ± 0.17) × 10^2 M^−1 | KA2 ([10]; pH 5.5): (1.73 ± 0.35) × 10^2 M^−1 | KA2 ([10]; pH 6.0): (2.64 ± 0.18) × 10^2 M^−1 | KA2 ([10]; pH 6.5): (2.13 ± 0.27) × 10^2 M^−1 | KA2 ([10]; pH 7.0): (2.13 ± 0.81) × 10^3 M^−1 | KA2 ([10]; pH 7.5): (4.52 ± 5.10) × 10^3 M^−1 | k4 ([10]; pH 4.1): (1.55 ± 0.08) × 10^−1 M^−1 s^−1 | k4 ([10]; pH 4.5): (2.49 ± 0.16) × 10^−2 M^−1 s^−1 | k4 ([10]; pH 5.0): (2.72 ± 0.35) × 10^−2 M^−1 s^−1 | k4 ([10]; pH 5.5): (1.14 ± 0.03) × 10^−2 M^−1 s^−1 | k4 ([10]; pH 6.0): (1.60 ± 0.03) × 10^−2 M^−1 s^−1 | k4 ([10]; pH 6.5): (1.26 ± 0.03) × 10^−2 M^−1 s^−1 | k4 ([10]; pH 7.0): (9.21 ± 3.17) × 10^−3 M^−1 s^−1 | k4 ([10]; pH 7.5): (5.48 ± 1.2) × 10^0 M^−1 s^−1 | k4, average ([10]; binding into Trp-191 cavity of heme-ligated yCcP, average pH 4.1 to 6.5): (4.1 ± 0.6) × 10^−2 M^−1s^−1 | KA2, average ([10]; binding into Trp-191 cavity, yCcP, average pH 4.1 to 6.5): 200 ± 70 M⁻¹ | kfobs faster than kfobs for the imidazole/CcP reaction [3]: about 10 times | ksobs, observed rate constant of slow absorbance change ([3]; 9.07 μM rCcP, 0.992 M MIM, pH 7.0): (1.13 ± 0.06) × 10^−4 s^−1 | kfobs, lower limit for initial binding ([3]; assuming 97% of reaction complete within 10 s mixing): ≥ 0.35 s⁻¹ | Time for initial binding phase to be complete [3]: ≤ 10 s | Time for initial binding phase to be complete ([3]; listed as MIM): less than 10 s | KA1 as fraction of KAapp ([3]; pH 7): about 4% | Kd (horse metMb): 87 mM
